{
  "source": "patent US4443619A",
  "about": "“Chlorocitric acids” (Hoffmann-La Roche Inc., priority 1981, dated 1984)",
  "key": {"[1]": {"assay": "Effect of stereoisomers of chlorocitric acid on food consumption in meal-fed rats (Example 14)", "assay_type": "in vivo, Charles River female rats", "details": "mean ± S.E.", "protocol": "Animals were fasted 48 hr, then meal-fed the 70% glucose diet described by A. C. […] Following 5 to 12 days alimentation on the meal-feeding regimen, rats were dosed with the appropriate compounds orally by intubation 1/2 hr before the 3 hr meal. Food cups were weighed immediately after the meal. The control group consisted of 5 to 10 rats, while the experimental group consisted of 4 to 6 rats."}, "[2]": {"assay": "Anorectic effect in 8 hour meal-fed Zucker rats (Example 17)", "assay_type": "in vivo, lean (Fa/-) and obese (fa/fa)", "protocol": "Lean (Fa/-) Zucker rats and obese (fa/fa) Zucker rats of both sexes were individually housed in wire-bottomed cages in a temperature-regulated (22° C.) light-controlled room (12 hr light, 6 a.m. to 6 p.m. and 12 hr dark, 6 p.m. 6 a.m.). The animals were fed a high carbohydrate (70% glucose) diet ad libitum for 13 days, dosed with the indicated compounds by oral intubation for 9 days and allowed to recover for 3 days. The animals were then meal fed from 8 a.m. to 4 p.m. for a period of 5 days, following which they were continued on the same meal schedule for an additional 6 days. During the 6-day period, the animals were administered the indicated compounds by oral intubation at 8 a.m. and 12 p.m. Food cups were weighed immediately after the meal."}, "[3]": {"assay": "Body weight and food intake in meal-fed rats, 16 day study (Example 19)", "assay_type": "in vivo, Charles River female rats", "details": "16 days", "protocol": "Two month old Charles River female rats (Charles River Breeding Laboratories, Wilmington, Mass.) were individually housed in wire-bottomedcages in a temperature-regulated (22° C.) light-controlled room (12 hr light, 6 a.m. to 6 p.m. and 12 hr dark, 6 p.m. to 6 a.m.). […] (1) control, (2) (-)-threo-chlorocitric acid (1.0 mmoles/kg, 227 mg/kg) administered by oral intubation 30 min before the 3 hr meal, and (3) (-)-threo-chlorocitric acid (1.1 mmoles/kg, 250 mg/kg) as a dietary admixture for the 3 hr meal. Treatment was continued for 16 days. The amount of body weight gained and food consumed during the study were determined."}, "[4]": {"assay": "Body composition of meal-fed rats, 16 day study (Example 20)", "assay_type": "in vivo, Charles River female rats", "details": "16 days", "protocol": "Two month old Charles River female rats (Charles River Breeding Laboratories, Wilmington, Mass.) were individually housed in wire-bottomedcages in a temperature-regulated (22° C.) light-controlled room (12 hr light, 6 a.m. to 6 p.m. and 12 hr dark, 6 p.m. to 6 a.m.). […] (1) control, (2) (-)-threo-chlorocitric acid (1.0 mmoles/kg, 227 mg/kg) administered by oral intubation 30 min before the 3 hr meal, and (3) (-)-threo-chlorocitric acid (1.1 mmoles/kg, 250 mg/kg as a dietary admixture for the 3 hr meal. Treatment was continued for 16 days. After 16 days of treatment, rats were killed by decapitation and blood was removed. […] C. Sullivan, et al, Am. J. Clinical Nutrition, 30 767 (1977). […] Total carcass lipid data are expressed in grams of percentages of carcass weight. An aliquot of saponified carcass extract was neutralized and total carcass nitrogen was determined using the Kjeldahl procedure described in \"Hawks\" Physiological Chemistry,\" B. L. Oser, ed., McGraw Book Co., New York, N.Y., 1965, page 1214. Carcass protein data are expressed in grams and percentages of carcass weight."}, "[5]": {"assay": "Body weight and food intake in meal-fed rats, oral administration, 17 day study (Example 21)", "assay_type": "in vivo, Charles River female rats", "details": "17 days", "protocol": "Two month old Charles River female rats (Charles River Breeding Laboratories, Wilmington, Mass.) were individually housed in wire-bottomedcages in a temperature-regulated (22° C.) light-controlled room (12 hr light, 6 a.m. to 6 p.m. and 12 hr dark, 6 p.m. to 6 a.m.). […] On the 8th day, the animals were administered water or (-)-threo-chlorocitric acid at the indicated concentration by oral intubation 30 min before the 3 hr meal. Treatment was continued for 17 days. Food cups were weighed immediately after the meal. The amount of body weight gained and food consumed during the period was determined."}, "[6]": {"system": "Stomach Emptying", "assay": "Effect on stomach emptying ([14C]glucose load) in rats (Example 25)", "assay_type": "in vivo", "details": "0.33 mmoles/kg oral, 60 min after [14C]glucose load, mean ± S.E.", "protocol": "Rats were trained to consume a 3 hr 70% glucose meal from 8 a.m. to 11 a.m. daily. On the experimental day, compounds were administered orally by intubation 30 min before a [^14 C]glucose load was given also by intubation. […] Sixty minutes later the rats were killed by decapitation; blood and stomachs were collected on ice.\nData are expressed as follows: dpm×10^3 per ml of serum and dpm×10^3 per stomach."}, "[7]": {"details": "dietary admixture, 1.1 mmoles (250 mg)/kg/day"}, "[8]": {"details": "oral intubation, 1.0 mmoles (227 mg)/kg/day"}, "[9]": {"details": "dietary admixture, 1.1 mmoles (250 mg)/kg"}, "[10]": {"details": "oral intubation, 1.0 mmoles (227 mg)/kg"}, "[11]": {"details": "G-70, 0.25 mmoles (57 mg)/kg oral"}, "[12]": {"details": "G-70, 0.50 mmoles (114 mg)/kg oral"}, "[13]": {"details": "G-70, 1.00 mmoles (227 mg)/kg oral"}},
  "data": [
    {"smiles": "O=C(O)C[C@@](O)(C(=O)O)[C@@H](Cl)C(=O)O", "note": "[(-)-threo-Chlorocitric acid, (-)-threo-chlorocitric acid]", "values": [
      {"measurement": "Food consumption", "setting": "[1]; 0.66 mmoles/kg oral, control 8.2 ± 1.2", "value": "4.8 ± 0.7", "unit": "g"},
      {"measurement": "Food consumption", "setting": "[1]; 2.63 mmoles/kg oral, control 13.5 ± 0.8", "value": "2.2 ± 0.5", "unit": "g"},
      {"measurement": "Daily Food Consumption", "setting": "[2]; Fa/- lean, 0.66 mmoles/kg oral, treatment day 1", "value": "12.5 ± 1.1", "unit": "g"},
      {"measurement": "Daily Food Consumption", "setting": "[2]; Fa/- lean, 0.66 mmoles/kg oral, treatment day 2", "value": "7.0 ± 0.9", "unit": "g"},
      {"measurement": "Daily Food Consumption", "setting": "[2]; Fa/- lean, 0.66 mmoles/kg oral, treatment day 3", "value": "7.2 ± 0.7", "unit": "g"},
      {"measurement": "Daily Food Consumption", "setting": "[2]; Fa/- lean, 0.66 mmoles/kg oral, treatment day 4", "value": "5.4 ± 1.1", "unit": "g"},
      {"measurement": "Daily Food Consumption", "setting": "[2]; Fa/- lean, 0.66 mmoles/kg oral, treatment day 5", "value": "7.3 ± 1.5", "unit": "g"},
      {"measurement": "Daily Food Consumption", "setting": "[2]; Fa/- lean, 0.66 mmoles/kg oral, treatment day 6", "value": "7.5 ± 1.3", "unit": "g"},
      {"measurement": "Daily Food Consumption", "setting": "[2]; Fa/- lean, 0.66 mmoles/kg, day 0 (pretreatment)", "value": "10.8 ± 1.0", "unit": "g"},
      {"measurement": "Daily Food Consumption", "setting": "[2]; fa/fa obese, 0.66 mmoles/kg oral, treatment day 1", "value": "10.7 ± 0.7", "unit": "g"},
      {"measurement": "Daily Food Consumption", "setting": "[2]; fa/fa obese, 0.66 mmoles/kg oral, treatment day 2", "value": "5.9 ± 1.5", "unit": "g"},
      {"measurement": "Daily Food Consumption", "setting": "[2]; fa/fa obese, 0.66 mmoles/kg oral, treatment day 3", "value": "5.8 ± 0.9", "unit": "g"},
      {"measurement": "Daily Food Consumption", "setting": "[2]; fa/fa obese, 0.66 mmoles/kg oral, treatment day 4", "value": "5.5 ± 0.9", "unit": "g"},
      {"measurement": "Daily Food Consumption", "setting": "[2]; fa/fa obese, 0.66 mmoles/kg oral, treatment day 5", "value": "4.9 ± 1.0", "unit": "g"},
      {"measurement": "Daily Food Consumption", "setting": "[2]; fa/fa obese, 0.66 mmoles/kg oral, treatment day 6", "value": "5.1 ± 1.1", "unit": "g"},
      {"measurement": "Daily Food Consumption", "setting": "[2]; fa/fa obese, 0.66 mmoles/kg, day 0 (pretreatment)", "value": "13.1 ± 1.1", "unit": "g"},
      {"measurement": "CBWG (cumulative body weight gain)", "setting": "[3]; [7]", "value": "-8 ± 6", "unit": "g"},
      {"measurement": "CFC (cumulative food consumption)", "setting": "[3]; [7]", "value": "157 ± 9", "unit": "g"},
      {"measurement": "FBW (final body weight)", "setting": "[3]; [7]", "value": "184 ± 8", "unit": "g"},
      {"measurement": "CBWG (cumulative body weight gain)", "setting": "[3]; [8]", "value": "-27 ± 4", "unit": "g"},
      {"measurement": "CFC (cumulative food consumption)", "setting": "[3]; [8]", "value": "139 ± 6", "unit": "g"},
      {"measurement": "FBW (final body weight)", "setting": "[3]; [8]", "value": "163 ± 5", "unit": "g"},
      {"measurement": "Carcass Lipid, % of carcass weight", "setting": "[4]; [9]", "value": "4.01 ± 0.45 % of carcass weight"},
      {"measurement": "Carcass Lipid, total", "setting": "[4]; [9]", "value": "7.01 ± 0.92", "unit": "g"},
      {"measurement": "Carcass Nitrogen, % of carcass weight", "setting": "[4]; [9]", "value": "4.10 ± 0.14 % of carcass weight"},
      {"measurement": "Carcass Nitrogen, total", "setting": "[4]; [9]", "value": "7.16 ± 0.29", "unit": "g"},
      {"measurement": "Carcass Weight", "setting": "[4]; [9]", "value": "176 ± 8", "unit": "g"},
      {"measurement": "Carcass Lipid, % of carcass weight", "setting": "[4]; [10]", "value": "1.94 ± 0.13 % of carcass weight"},
      {"measurement": "Carcass Lipid, total", "setting": "[4]; [10]", "value": "2.74 ± 0.19", "unit": "g"},
      {"measurement": "Carcass Nitrogen, % of carcass weight", "setting": "[4]; [10]", "value": "4.27 ± 0.22 % of carcass weight"},
      {"measurement": "Carcass Nitrogen, total", "setting": "[4]; [10]", "value": "6.57 ± 0.30", "unit": "g"},
      {"measurement": "Carcass Weight", "setting": "[4]; [10]", "value": "155 ± 4", "unit": "g"},
      {"measurement": "CBWG (cumulative body weight gain)", "setting": "[5]; [11]", "value": "12 ± 4", "unit": "g"},
      {"measurement": "CFC (cumulative food consumption)", "setting": "[5]; [11]", "value": "209 ± 10", "unit": "g"},
      {"measurement": "FBW (final body weight)", "setting": "[5]; [11]", "value": "211 ± 7", "unit": "g"},
      {"measurement": "CBWG (cumulative body weight gain)", "setting": "[5]; [12]", "value": "-6 ± 6", "unit": "g"},
      {"measurement": "CFC (cumulative food consumption)", "setting": "[5]; [12]", "value": "176 ± 9", "unit": "g"},
      {"measurement": "FBW (final body weight)", "setting": "[5]; [12]", "value": "188 ± 7", "unit": "g"},
      {"measurement": "CBWG (cumulative body weight gain)", "setting": "[5]; [13]", "value": "-29 ± 6", "unit": "g"},
      {"measurement": "CFC (cumulative food consumption)", "setting": "[5]; [13]", "value": "153 ± 4", "unit": "g"},
      {"measurement": "FBW (final body weight)", "setting": "[5]; [13]", "value": "169 ± 6", "unit": "g"},
      {"measurement": "Serum, total per ml", "setting": "[6]", "value": "1.9 ± 0.4", "unit": "dpm × 10^3"},
      {"measurement": "Stomach Contents, total per stomach", "setting": "[6]", "value": "2760 ± 69", "unit": "dpm × 10^3"}
    ]}
  ]
}
